How the values were obtained:
P-388 leukemia [1] = test: Antitumour activity, Test Example 2 (intraperitoneally transplanted--intravenously injected); assay type: in vivo, BDF1 mouse; conditions: 10 mg/kg (active ingredient mg/kg/day), i.v. from the tail, days 1 and 8; fatty emulsion (Formulation Example 10); saline control = 0%
Method: 1×10^6 of P-388 leukemia cells per mouse were intraperitoneally transplanted to BDF1 mouse. Each formulation (formulated in accordance with the below-mentioned Formulation Example 10) was intravenously injected from the tail on days 1 and 8 after the transplantation.
The increase life span (ILS, %) of each treated group was determined on such basis that the median survival time of a control group to which a physiolosical saline was administered was regarded to be 0% of increase life span (ILS). In the cases where Compounds No. 1 and No. 11 were administered at a dose (active ingredient mg/kg/day) of 10 mg/kg, ILS (%) was 46 and 27, respectively. (Note) * The increase life span was calculated in the
same manner as in Test Example 1.

[2] = Solubility to a non-aqueous solvent, Test Example 3; assay type: physicochemical; conditions: 18° to 20° C.; for Solubility, Medium chain triglyceride: medium chain triglyceride (ODO)
Method: A stirring magnet was put into a 10 ml or 100 ml egg plant flask equipped with a stopper, and 50 mg of a test compound was introduced into this flask. Further, a suitable amount of a desired solvent was introduced thereinto, and the solubility was determined.

P-388 leukemia [3] = test: Antitumour activity, Test Example 1 (intraperitoneally transplanted--intraperitoneally administered); assay type: in vivo, BDF1 mouse; conditions: i.p., days 1 and 8, mortality observed 30 days, saline control = 0%; for ILS at 50 mg/kg: 50 mg/kg/day active ingredient; for ILS at 6.25 mg/kg: 6.25 mg/kg/day active ingredient; for ILS at 100 mg/kg: 100 mg/kg/day active ingredient
Method: 1×10^6 of P-388 leukemia cells per mouse were intraperitoneally transplanted into BDF1 mouse. […] The increase life span of each group was determined on such basis that the medium survival time of a control group to which physiological saline was administered was regarded to be 0% of increase life span (ILS). […] | (Note) *Increase life span is calculated by the following equation: | Increase life span % (ILS) =- | [drawing 18]

[4] = 12.5 mg/kg/day active ingredient
[5] = Mus musculus, P388, ip, 720 h, 12.5 mg/kg/day active ingredient, read-out: Increase life span (ILS)
[6] = Mus musculus, P388, ip, 720 h, 25 mg/kg/day active ingredient, read-out: Increase life span (ILS)
[7] = Mus musculus, P388, ip, 720 h, read-out: Increase life span (ILS)

| SMILES | ILS at 12.5 mg/kg (P-388 leukemia [3]; [5]) | ILS at 25 mg/kg (P-388 leukemia [3]; [6]) | ILS at 50 mg/kg (P-388 leukemia [3]; [7]) | further results |
| --- | --- | --- | --- | --- |
| Cc1cc(NC(=O)NC(=O)c2ccccc2N(C)C)ccc1Oc1ncc(Br)cn1 [Compound 1, N-[4-(5-bromo-2-pyrimidinyloxy)-3methylphenyl]-N'-[2-(dimethylamino)benzoyl]urea] |  |  |  | Increase life span (ILS) (P-388 leukemia [1]): 46%; Solubility, Medium chain triglyceride [2]: 2.1-2.3%; Solubility, Soybean oil [2]: 0.46-0.49%; Increase life span (ILS) (P-388 leukemia [3]; [4]): 126%; Increase life span (ILS) (P-388 leukemia [3]; 25 mg/kg/day active ingredient): 183% |
| Cc1cc(NC(=O)NC(=O)c2ccccc2N(C)C)ccc1Oc1ncc(Br)cn1.Cl [Compound 2, N-[4-(5-bromo-2-pyrimidinyloxy)-3methylphenyl]-N'-[2-(dimethylamino)benzoyl]urea hydrochloride] |  |  |  | Increase life span (ILS) (P-388 leukemia [3]; [4]): 94%; Increase life span (ILS) (P-388 leukemia [3]; 25 mg/kg/day active ingredient): 206% |
| Cc1cc(NC(=O)NC(=O)c2c(F)cccc2N(C)C)ccc1Oc1ncc(Br)cn1 [Compound 3] | 50% | 150% |  |  |
| CN(C)c1cccc(F)c1C(=O)NC(=O)Nc1ccc(Oc2ncc(Br)cn2)c(Cl)c1 [Compound 4] |  |  | 135% |  |
| CN(C)c1ccccc1C(=O)NC(=O)Nc1ccc(Oc2ncc(Br)cn2)c(C(F)(F)F)c1 [Compound 9, N-[4-(5-bromo-pyrimidinyloxy)-3-trifluoromethylphenyl]-N'-[2(dimethylamino)benzoyl]urea] | 80% |  |  |  |
| CN(C)c1ccccc1C(=O)NC(=O)Nc1ccc(Oc2ncc(Cl)cn2)c(C(F)(F)F)c1 [Compound 10, N-[4-(5-chloro-2-pyrimidinyloxy)-3-trifluoromethylphenyl]-N'-[2-(dimethylamino)benzoyl]urea] | 39% |  |  |  |
| Cc1cc(NC(=O)NC(=O)c2ccccc2N(C)C)ccc1Oc1ncc(Cl)cn1 [Compound 11, N-[4-(5-chloro-2-pyrimidinyloxy)-3methylphenyl]-N'-[2-(dimethylamino)benzoyl]urea] |  | 99% | 132% | Increase life span (ILS) (P-388 leukemia [1]): 27%; Solubility, Medium chain triglyceride [2]: 1.5-1.8%; Solubility, Soybean oil [2]: 0.15-0.16% |
| CN(C)c1ccccc1C(=O)NC(=O)Nc1ccc(Oc2ncc(Br)cn2)c([N+](=O)[O-])c1 [Compound 13] |  |  | 27% |  |
| Nc1ccccc1C(=O)NC(=O)Nc1ccc(Oc2ncc(Br)cn2)c(Cl)c1 [Compound 26, N-(2-aminobenzoyl)-N'-[4-(5-bromo-2-pyrimidinyloxy)-3-chlorophenyl]urea] | 93% | > 137% |  |  |
| Cc1cc(NC(=O)NC(=O)c2ccccc2N)ccc1Oc1ncc(Br)cn1 [Compound 27, N-(2-aminobenzoyl)-N'-[4-(5-bromo-2-pyrimidinyloxy)-3-methylphenyl]urea] | 126% | 160% |  |  |
| CCN(CC)c1ccccc1C(=O)NC(=O)Nc1ccc(Oc2ncc(Br)cn2)c(C)c1 [Compound 33] |  | 49% |  | Solubility, Soybean oil [2]: at least 13.6% |
| Cc1cc(NC(=O)NC(=O)c2ccccc2N2CCOCC2)ccc1Oc1ncc(Br)cn1 [Compound 34, N-[4-(5-bromo-2-pyrimidinyloxy)-3-methylphenyl]-N'-(2-morpholinobenzoyl)urea] |  |  |  | ILS at 6.25 mg/kg (P-388 leukemia [3]; [7]): 49% |
| COc1cc(NC(=O)NC(=O)c2ccccc2N(C)C)ccc1Oc1ncc(Cl)cn1 [Compound 35] |  |  |  | ILS at 100 mg/kg (P-388 leukemia [3]; [7]): 27%; ILS at 200 mg/kg (P-388 leukemia [3]; Mus musculus, P388, ip, 720 h, 200 mg/kg/day active ingredient, read-out: Increase life span (ILS)): 53% |
| CN(C)c1ccccc1C(=O)NC(=O)Nc1ccc(Oc2ncc(Cl)cn2)c([N+](=O)[O-])c1 [Compound 36] |  |  |  | ILS at 100 mg/kg (P-388 leukemia [3]; [7]): 68% |
| CC(=O)Nc1ccccc1C(=O)NC(=O)Nc1ccc(Oc2ncc(Br)cn2)c(C)c1 [Compound 49, N-[2-(acetylamino]benzoyl]-N'-[4-(5-bromo-2-pyrimidinyloxy)-3-methylphenyl]urea] | 39% | 59% |  |  |
| CCCC(=O)Nc1ccccc1C(=O)NC(=O)Nc1ccc(Oc2ncc(Br)cn2)c(C)c1 [Compound 50] |  | 49% | 150% |  |
| CCCCCCCCC(=O)Nc1ccccc1C(=O)NC(=O)Nc1ccc(Oc2ncc(Br)cn2)c(C)c1 [Compound 51] |  |  | 184% |  |
| CC(=O)N(C)c1ccccc1C(=O)NC(=O)Nc1ccc(Oc2ncc(Br)cn2)c(C)c1 [Compound 52] | 139% |  |  | ILS at 6.25 mg/kg (P-388 leukemia [3]; [7]): 39% |
| Cc1cc(NC(=O)NC(=O)c2ccccc2N(S(C)(=O)=O)S(C)(=O)=O)ccc1Oc1ncc(Br)cn1 [Compound 54] |  |  | 49% |  |

From patent US5102884A, “Substituted benzoylurea compounds or their salts, processes for their production and antitumour compositions containing them” (Ishihara Sangyo Kaisha Ltd., priority 1989, dated 1992)
